Laboratory results reported in the CombiSolv-Exp solvation set (Vermeire and Green 2021).

Test: solvent given as SMILES

## CC1=CCC2C(C1)C2(C)C (stereo not drawn)
In O
  solvation free energy, 298 K: 0.79 kcal/mol

## CCCCCCCCCCOC(=O)c1ccccc1C(=O)OCCCCC
In O
  solvation free energy, 298 K: -6.49 kcal/mol

## c1ccc2c(c1)Sc1ccccc1S2
In C1COCCO1
  solvation free energy, 298 K: -12.8 kcal/mol
In CC(C)CC(C)(C)C
  solvation free energy, 298 K: -11.1 kcal/mol
In CC(C)CCO
  solvation free energy, 298 K: -11.3 kcal/mol
In CC(C)CO
  solvation free energy, 298 K: -11.1 kcal/mol
In CC(C)O
  solvation free energy, 298 K: -11 kcal/mol
In CC(C)OC(C)C
  solvation free energy, 298 K: -11.7 kcal/mol
In CCC(C)O
  solvation free energy, 298 K: -11.2 kcal/mol
In CCCCC(CC)CO
  solvation free energy, 298 K: -11.4 kcal/mol
In CCCCCC
  solvation free energy, 298 K: -11.4 kcal/mol
In CCCCCCC
  solvation free energy, 298 K: -11.3 kcal/mol
In CCCCCCCC
  solvation free energy, 298 K: -11.4 kcal/mol
In CCCCCCCCCC
  solvation free energy, 298 K: -11.3 kcal/mol
In CCCCCCCCCCO
  solvation free energy, 298 K: -11.6 kcal/mol
In CCCCCCCCO
  solvation free energy, 298 K: -11.6 kcal/mol
In CCCCCCCO
  solvation free energy, 298 K: -11.6 kcal/mol
In CCCCCCO
  solvation free energy, 298 K: -11.5 kcal/mol
In CCCCCO
  solvation free energy, 298 K: -11.5 kcal/mol
In CCCCO
  solvation free energy, 298 K: -11.4 kcal/mol
In CCCO
  solvation free energy, 298 K: -11.3 kcal/mol
In CCOCC
  solvation free energy, 298 K: -12.1 kcal/mol
In CO
  solvation free energy, 298 K: -10.9 kcal/mol
In COC(C)(C)C
  solvation free energy, 298 K: -12.1 kcal/mol

## C=C(C)C(CC=C(C)C)COC(C)=O (stereo not drawn)
In O
  solvation free energy, 298 K: -3.36 kcal/mol

## BrCBr
In CCCCCCCCCCCCCCCC
  solvation free energy, 298 K: -3.87 kcal/mol
In CCCCCCCCO
  solvation free energy, 298 K: -4.19 kcal/mol
In O
  solvation free energy, 298 K: -2.01 kcal/mol
In [2H]O[2H]
  solvation free energy, 298 K: -2.03 kcal/mol

## CCCCCCCCCCCCCCCCCCCCCCC
In CC(=O)N(C)C
  solvation free energy, 298 K: -15.7 kcal/mol
In CC(C)(C)O
  solvation free energy, 298 K: -14.2 kcal/mol
In CC(C)=O
  solvation free energy, 298 K: -13.4 kcal/mol
In CCC(C)=O
  solvation free energy, 298 K: -14.3 kcal/mol
In CCC(C)O
  solvation free energy, 298 K: -14.1 kcal/mol
In CCCCOC(C)=O
  solvation free energy, 298 K: -14.9 kcal/mol
In CCOC(C)=O
  solvation free energy, 298 K: -14.4 kcal/mol
In CN(C)C=O
  solvation free energy, 298 K: -15.8 kcal/mol
In COC(C)=O
  solvation free energy, 298 K: -13.7 kcal/mol
In O
  solvation free energy, 298 K: 5.07 kcal/mol

## CCCCCCCBr
In O
  solvation free energy, 298 K: 0.34 kcal/mol

## CC(=O)OCC(C)C
In CCCCCCCCCCCCCCCC
  solvation free energy, 298 K: -4.32 kcal/mol
In CCCCCCCCO
  solvation free energy, 298 K: -4.71 kcal/mol
In O
  solvation free energy, 298 K: -2.41 kcal/mol
In [2H]O[2H]
  solvation free energy, 298 K: -2.47 kcal/mol

## CC1=CC(=O)C(C(C)C)CC1 (stereo not drawn)
In O
  solvation free energy, 298 K: -4.51 kcal/mol

## O=C(c1ccccc1)N(O)c1ccccc1
In O
  solvation free energy, 298 K: -11.3 kcal/mol

## COc1cccc(O)c1
In O
  solvation free energy, 298 K: -7.67 kcal/mol

## COC(=O)c1ccc(N(C)C)cc1
In CN(C)C=O
  solvation free energy, 298 K: -11.9 kcal/mol
In O
  solvation free energy, 298 K: -7.01 kcal/mol

## C[N+](=O)[O-]
In Brc1ccccc1
  solvation free energy, 298 K: -4.19 kcal/mol
In C1CCCCC1
  solvation free energy, 298 K: -2.81 kcal/mol
In C1CCOC1
  solvation free energy, 298 K: -5.04 kcal/mol
In C1COCCO1
  solvation free energy, 298 K: -5.08 kcal/mol
In CC1COC(=O)O1
  solvation free energy, 298 K: -5.38 kcal/mol
In CC#N
  solvation free energy, 298 K: -5.63 kcal/mol
In CC(=O)N(C)C
  solvation free energy, 298 K: -5.52 kcal/mol
In CC(=O)O
  solvation free energy, 298 K: -4.86 kcal/mol
In CC(=O)c1ccccc1
  solvation free energy, 298 K: -4.89 kcal/mol
In CC(C)(C)O
  solvation free energy, 298 K: -3.79 kcal/mol
In CC(C)=O
  solvation free energy, 298 K: -5.32 kcal/mol
In CC(C)CC(C)(C)C
  solvation free energy, 298 K: -2.74 kcal/mol
In CC(C)CCCC(C)CCCC(C)CCCCC(C)CCCC(C)CCCC(C)C
  solvation free energy, 298 K: -2.56 kcal/mol
In CC(C)CCO
  solvation free energy, 298 K: -3.74 kcal/mol
In CC(C)O
  solvation free energy, 298 K: -3.92 kcal/mol
In CC(C)OC(C)C
  solvation free energy, 298 K: -3.87 kcal/mol
In CC(Cl)Cl
  solvation free energy, 298 K: -4.84 kcal/mol
In CCBr
  solvation free energy, 298 K: -4.49 kcal/mol
In CCC(C)=O
  solvation free energy, 298 K: -5.11 kcal/mol
In CCCC#N
  solvation free energy, 298 K: -5.07 kcal/mol
In CCCCC
  solvation free energy, 298 K: -2.7 kcal/mol
In CCCCCC
  solvation free energy, 298 K: -2.8 kcal/mol
In CCCCCCC
  solvation free energy, 298 K: -2.62 kcal/mol
In CCCCCCCC
  solvation free energy, 298 K: -2.62 kcal/mol
In CCCCCCCCCC
  solvation free energy, 298 K: -2.69 kcal/mol
In CCCCCCCCCCCCCCCC
  solvation free energy, 298 K: -2.52 kcal/mol
In CCCCCCCCO
  solvation free energy, 298 K: -3.49 kcal/mol
In CCCCCl
  solvation free energy, 298 K: -4.07 kcal/mol
In CCCCO
  solvation free energy, 298 K: -3.88 kcal/mol
In CCCCOCCCC
  solvation free energy, 298 K: -3.57 kcal/mol
In CCCO
  solvation free energy, 298 K: -3.94 kcal/mol
In CCN(CC)CC
  solvation free energy, 298 K: -3.55 kcal/mol
In CCO
  solvation free energy, 298 K: -4.26 kcal/mol
In CCOC(C)=O
  solvation free energy, 298 K: -4.96 kcal/mol
In CCOCC
  solvation free energy, 298 K: -4.21 kcal/mol
In CCOCCOCCOCC
  solvation free energy, 298 K: -4.91 kcal/mol
In CCOc1ccccc1
  solvation free energy, 298 K: -4.39 kcal/mol
In CN1CCCC1=O
  solvation free energy, 298 K: -5.53 kcal/mol
In CN(C)C=O
  solvation free energy, 298 K: -5.58 kcal/mol
In CN(C)P(=O)(N(C)C)N(C)C
  solvation free energy, 298 K: -5.68 kcal/mol
In CNC=O
  solvation free energy, 298 K: -5.14 kcal/mol
In CO
  solvation free energy, 298 K: -4.66 kcal/mol
In COC(C)=O
  solvation free energy, 298 K: -5.13 kcal/mol
In COCCO
  solvation free energy, 298 K: -5 kcal/mol
In COc1ccccc1
  solvation free energy, 298 K: -4.65 kcal/mol
In CS(C)=O
  solvation free energy, 298 K: -5.63 kcal/mol
In Cc1ccc(C)cc1
  solvation free energy, 298 K: -4.13 kcal/mol
In Cc1cccc(C)n1
  solvation free energy, 298 K: -4.67 kcal/mol
In Cc1cccc(O)c1
  solvation free energy, 298 K: -4.68 kcal/mol
In Cc1ccccc1
  solvation free energy, 298 K: -4.27 kcal/mol
In Cc1ccccn1
  solvation free energy, 298 K: -4.88 kcal/mol
In ClC(Cl)(Cl)Cl
  solvation free energy, 298 K: -3.49 kcal/mol
In ClC(Cl)Cl
  solvation free energy, 298 K: -4.64 kcal/mol
In ClCCCl
  solvation free energy, 298 K: -4.9 kcal/mol
In ClCCl
  solvation free energy, 298 K: -4.98 kcal/mol
In Clc1ccccc1
  solvation free energy, 298 K: -4.24 kcal/mol
In FC(F)(F)C(F)(F)C(F)(F)C(F)(F)C(F)(F)C(F)(F)F
  solvation free energy, 298 K: -2.11 kcal/mol
In Fc1c(F)c(F)c(F)c(F)c1F
  solvation free energy, 298 K: -4.22 kcal/mol
In Fc1ccccc1
  solvation free energy, 298 K: -4.53 kcal/mol
In ICI
  solvation free energy, 298 K: -3.76 kcal/mol
In Ic1ccccc1
  solvation free energy, 298 K: -4.04 kcal/mol
In NC=O
  solvation free energy, 298 K: -4.73 kcal/mol
In Nc1ccccc1
  solvation free energy, 298 K: -5.08 kcal/mol
In O
  solvation free energy, 298 K: -4.03 kcal/mol
In O=C1CCCCC1
  solvation free energy, 298 K: -5.07 kcal/mol
In O=C1CCCO1
  solvation free energy, 298 K: -5.44 kcal/mol
In O=CN1CCOCC1
  solvation free energy, 298 K: -5.28 kcal/mol
In OCCO
  solvation free energy, 298 K: -4.07 kcal/mol
In OCCOCCOCCO
  solvation free energy, 298 K: -4.01 kcal/mol
In OCc1ccccc1
  solvation free energy, 298 K: -4.5 kcal/mol
In S=C=S
  solvation free energy, 298 K: -3.25 kcal/mol
In [2H]O[2H]
  solvation free energy, 298 K: -4.01 kcal/mol
In c1ccc2ncccc2c1
  solvation free energy, 298 K: -4.72 kcal/mol
In c1ccc(COCc2ccccc2)cc1
  solvation free energy, 298 K: -4.41 kcal/mol
In c1ccccc1
  solvation free energy, 298 K: -4.5 kcal/mol
In c1ccncc1
  solvation free energy, 298 K: -5.08 kcal/mol

## COc1ccccc1N
In O
  solvation free energy, 298 K: -6.12 kcal/mol

## CCc1ccccc1C
In O
  solvation free energy, 298 K: -0.95 kcal/mol

## COS(=O)(=O)OC
In O
  solvation free energy, 298 K: -5.1 kcal/mol

## CCc1cccc(CC)c1N(COC)C(=O)CCl
In O
  solvation free energy, 298 K: -8.21 kcal/mol

## c1c[nH]cn1
In O
  solvation free energy, 298 K: -9.63 kcal/mol

## CCC(C)CCO (stereo not drawn)
In CCCCCCCC
  solvation free energy, 298 K: -4.82 kcal/mol
In CCCCCCCCCC
  solvation free energy, 298 K: -4.79 kcal/mol

## CCCCCOC(=O)CC
In O
  solvation free energy, 298 K: -2.11 kcal/mol

## CCc1ccc2c(c1)C(=O)c1ccccc1C2=O
In C1CCCCC1
  solvation free energy, 298 K: -12.2 kcal/mol
In C1CCOC1
  solvation free energy, 298 K: -14.2 kcal/mol
In C1COCCO1
  solvation free energy, 298 K: -14.1 kcal/mol
In CC1CCCCC1
  solvation free energy, 298 K: -12.1 kcal/mol
In CC(C)CC(C)(C)C
  solvation free energy, 298 K: -11.6 kcal/mol
In CC(C)CCO
  solvation free energy, 298 K: -12.2 kcal/mol
In CC(C)CO
  solvation free energy, 298 K: -12.1 kcal/mol
In CC(C)O
  solvation free energy, 298 K: -12.1 kcal/mol
In CC(C)OC(C)C
  solvation free energy, 298 K: -12.4 kcal/mol
In CCC(C)O
  solvation free energy, 298 K: -12.3 kcal/mol
In CCCC(C)O
  solvation free energy, 298 K: -12.3 kcal/mol
In CCCCC(CC)CO
  solvation free energy, 298 K: -12.4 kcal/mol
In CCCCCC
  solvation free energy, 298 K: -11.9 kcal/mol
In CCCCCCC
  solvation free energy, 298 K: -12 kcal/mol
In CCCCCCCC
  solvation free energy, 298 K: -12 kcal/mol
In CCCCCCCCCC
  solvation free energy, 298 K: -12 kcal/mol
In CCCCCCCCO
  solvation free energy, 298 K: -12.5 kcal/mol
In CCCCCCCO
  solvation free energy, 298 K: -12.5 kcal/mol
In CCCCCCO
  solvation free energy, 298 K: -12.4 kcal/mol
In CCCCCO
  solvation free energy, 298 K: -12.4 kcal/mol
In CCCCCl
  solvation free energy, 298 K: -13.5 kcal/mol
In CCCCO
  solvation free energy, 298 K: -12.3 kcal/mol
In CCCCOC(C)=O
  solvation free energy, 298 K: -13.4 kcal/mol
In CCCCOCCCC
  solvation free energy, 298 K: -12.6 kcal/mol
In CCCO
  solvation free energy, 298 K: -12.1 kcal/mol
In CCO
  solvation free energy, 298 K: -12.6 kcal/mol
In CCOC(C)=O
  solvation free energy, 298 K: -13.5 kcal/mol
In CO
  solvation free energy, 298 K: -12.1 kcal/mol
In COC(C)=O
  solvation free energy, 298 K: -13.7 kcal/mol
In O
  solvation free energy, 298 K: -6.57 kcal/mol
